Drawing on PubChem BioAssay (NCI), this text covers TGI and GI50 for 10 compounds.

SMILES strings stand for the structures.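 Step 1: Grow cells in 96-well plates. Step 2: Expose to compound for 48 hours at 5 concentrations. Step 3: Interpolate endpoints linearly; if unreached, use highest concentration. GI50 = concentration required for 50% inhibition of growth. TGI: total growth inhibition.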

Common to all, as to assay: growth of human tumour cells (NCI), 48 h
Assay [1] concerns MDA-MB-231 breast.
Assay [2] relates to MDA-MB-435.
Assay [3] relates to OVCAR-4 ovarian.
For assay [4], the system named is RPMI-8226 leukemia.
Assay [5] deals with T-47D breast.
The test system of assay [6] is EKVX NSCLC.
In assay [7] the test system is CAKI-1 renal.
The subject of assay [8] is COLO 205 colon.
Assay [9] relates to MOLT-4 leukemia.
The subject of assay [10] is SNB-19 CNS.

In the case of `OCC(O)C(O)C(O)C1SC(c2ccccc2)=NN1c1ccccc1` (centres undefined), the TGI is greater than 91.6 µM in assay [1]; greater than 100 µM in assay [2]; greater than 100 µM in assay [3]; greater than 100 µM in assay [4]; greater than 70.3 µM in assay [5]; greater than 100 µM in assay [6]. In addition, the TGI in [7] was greater than 100 µM; in [8], greater than 100 µM; in [9], greater than 100 µM; in assay [10], greater than 89.8 µM.
`COc1ccccc1C1=C2C(=O)N(C)C(c3ccccc3OC)=C2C(=O)N1C`: the TGI in assay [1], in assay [2], in [3], in assay [5], in assay [6] and in [7] was greater than 100 µM throughout. Also, the TGI in [8] was greater than 100 µM; in assay [9] it was greater than 100 µM; in assay [10], 75.4 µM.
In the case of `C=C(Cl)COC(=O)Nc1cccc(Cl)c1`, the TGI in [1] was greater than 100 µM; in [2], greater than 100 µM; in assay [3], greater than 100 µM; in assay [4], greater than 100 µM; in [5], greater than 100 µM; in [6], 59.1 µM. Further, the TGI in assay [7], in [8], in [9] and in assay [10] was greater than 100 µM each time.
With `CCOC(=O)CCCn1c(SC)nc2cc(-c3ccco3)[nH]c2c1=O`, the GI50 in assay [1] was 28 µM; in [2], greater than 100 µM; in [3], greater than 100 µM; in assay [4] it was greater than 100 µM; in assay [5], 39.6 µM; in assay [6], 65.9 µM. In addition, the GI50 in assay [7] was 25.8 µM; in assay [8] it was greater than 100 µM; in assay [9] it was greater than 100 µM; in assay [10], 19.8 µM. Besides, the TGI in assay [1] was 81.2 µM; in assay [2], greater than 100 µM; in [3], greater than 100 µM; in assay [4], greater than 100 µM; in assay [5] it was greater than 100 µM; in assay [6], greater than 100 µM. For the same compound, the TGI in assay [7] was 90.4 µM; in assay [8] it was greater than 100 µM; in [9], greater than 100 µM; in assay [10] it was 65.6 µM.
As to `CC(=O)Nc1nc(SCc2ccccc2)c2ncn(C(C)=O)c2n1`, the GI50 is 77.3 µM in [1]; greater than 100 µM in [2]; 55.6 µM in [4]; 50.7 µM in assay [5]; 71.6 µM in assay [6]; 28 µM in [7]. Besides, the GI50 in assay [8], in [9] and in assay [10] was greater than 100 µM throughout. Also, the TGI in assay [1], in assay [2], in assay [4], in [5], in assay [6] and in [7] was greater than 100 µM each time. Moreover, the TGI in [8], in assay [9] and in assay [10] was greater than 100 µM each time.
`C[C@]12CC[C@H](O)CC1=CC[C@@H]1C2CC[C@]2(C)c3nn(-c4ccc(F)cc4)nc3CC12` (some centres undefined): the TGI in assay [1], in [2], in assay [3], in assay [5], in [6] and in assay [7] was greater than 100 µM each time. Besides, the TGI in assay [8], in assay [9] and in [10] was greater than 100 µM each time.
Turning to `C/C=C(\C)C(=O)N[C@H]1[C@@H](OC(C)=O)C[C@]2(C)C3CC[C@@]4(C)C(CC[C@@H]4C(C)N(C)C)C3CCC2[C@H]1O` (some centres undefined), the GI50 in assay [1] was 3.23 µM; in assay [2], 2.27 µM; in assay [3], 5.29 µM; in assay [5], 2.06 µM; in assay [6] it was 5.63 µM; in assay [7], 3.2 µM. Also, the GI50 in assay [8] was 2.15 µM; in [9], 6.19 µM; in [10] it was 13.6 µM. Moreover, the TGI is 10.7 µM in assay [1]; 6.78 µM in assay [2]; 31.5 µM in assay [3]; 10.3 µM in [5]; 31.4 µM in assay [6]; 14 µM in [7]. Besides, the results for the TGI in [8], in assay [9] and in assay [10] were 5.91 µM, 33.8 µM and 28.9 µM, respectively.
Turning to `CCCc1ccc(S(=O)(=O)N[C@H]2CC[C@H]3[C@@H]4CCc5cc(O)ccc5[C@H]4CC[C@]23C)cc1`, the GI50 in assay [1] is 2.29 µM; in assay [2], 3.13 µM; in assay [3], 2.23 µM; in assay [4] it was 2.9 µM; in [5], 3.54 µM; in assay [7] it was 3.45 µM. The GI50 in assay [8] was 1.84 µM; in assay [9], 2.36 µM; in assay [10] it was 4.2 µM. For the same compound, the TGI in [1] worked out at 6.21 µM; in [2], 11.1 µM; in [3], 9.57 µM; in assay [4], 10 µM; in assay [5], 10.8 µM; in assay [7], 11.9 µM. Also, the TGI in assay [8] came out at 3.28 µM; in assay [9], 9.18 µM; in assay [10] it was 15.9 µM.
On to `CCCCCNC(=O)[C@@H]1CCCN2C(=O)CC[C@H](NC(=O)[C@H](Cc3ccc(OP(=O)(O)O)cc3)NC(C)=O)C(=O)N12`, for which the GI50 in assay [1], in assay [2], in assay [3], in assay [4], in assay [5] and in assay [7] was greater than 25 µM throughout. Also, the GI50 in assay [8], in [9] and in [10] was greater than 25 µM throughout. Further, the TGI in assay [1], in [2], in [3], in [4], in assay [5] and in assay [7] was greater than 25 µM throughout. Besides, the TGI in assay [8], in assay [9] and in [10] was greater than 25 µM each time.
On to `O=C(/C=C/C=C/c1ccccc1)CCc1ccccc1`, for which the TGI in [1], in assay [2], in assay [3], in [5], in assay [6] and in assay [7] was greater than 100 µM in each case. For the same compound, the TGI in [8] is greater than 100 µM; in [9] it was 56.1 µM; in assay [10], greater than 100 µM.
